According to patent US20110212885A1, “OPHTHALMIC AND CONTACT LENS SOLUTIONS CONTAINING PEPTIDES AS PRESERVATIVE” (priority 2003, published 2011):
Where two headings read alike, the source gives them in different places. Non-standard residues stand in square brackets, D forms with d. Residues, ends and D or L forms follow the SMILES beside them. No end group written: not given here.

Key:
Assay type in all cases: cell-based
[1] = tested on: Pseudomonas aeruginosa (ATCC 9027); settings: for lowest concentration giving complete kill of P. aeruginosa: Experiment 3, tested 100 to 1 ug/mL in water; for average cfu/mL: P. aeruginosa; for biocidal effect on P. aeruginosa (in words): 100 ug/mL in water
Description: (§1) Peptides were tested using a conventional Disinfection Efficacy antimicrobial assay (ISO 14729), commonly used in evaluating biocidal efficacy of preservatives for use in contact lens care solutions. Briefly, a known concentration of organisms are inoculated into the test solution, and allowed to incubate for a given amount of time, after which they are neutralized to inactivate the preservative. Samples are serially diluted and plated in duplicate onto petri plates onto which growth medium is poured. The plates are incubated at 35° C. (bacteria) or 25° C. (yeast and molds) for 48 hours. The average number of colony forming units is determined on countable plates (the dilution at which between 30 to 300 cfu/plate are observed, except when colonies are observed only on the −1 dilution plates). The log reduction resulting from exposure to the test solution is calculated based on the growth of positive controls plated simultaneously. Recovery controls, to confirm that the test solution is neutralized, and viability controls are also plated.
(§2) Method: The Disinfection Efficacy test was used with the following organisms: Staphylococcus aureus (ATCC 6538), Pseudomonas aeruginosa (ATCC 9027), Serratia marcesens (ATCC 13880), Candida albicans (ATCC 10231), and Fusarium solani (ATCC 36031). The peptides were diluted in water at a concentration of 100 ug/mL (adjusted for purity). Organism cultures were prepared to result in an inoculum concentration between 10^7 and 10^8 cfu/mL. The test solutions were inoculated for a 1 hour and a 3 hour exposure period, neutralized with DEB with 0.1% SLS added, and plated in duplicate.
(§3) Method: The Disinfection Efficacy test was used as in experiment 2 using Staphylococcus aureus and Pseudomonas aeruginosa. The peptides were diluted in water at concentrations of 100, 33.3, 10, 3.33, and 1 ug/mL. The test solutions were inoculated for 1 hour, neutralized, and plated in duplicate.

[2] = tested on: Staphylococcus aureus (ATCC 6538); settings: for concentration giving complete kill of S. aureus: tested 100 to 1 ug/mL in water; for average cfu/mL: S. aureus; for biocidal effect on S. aureus (in words): 100 ug/mL in water
Description: as §1, §2, §3

[3] = tested on: Candida albicans (ATCC 10231); settings: 1 hour exposure; for average cfu/mL: C. albicans, peptide 100 ug/mL in water; for biocidal effect on C. albicans (in words): 100 ug/mL in water
Description: as §1
Method: Candida albicans (ATCC 10231) stock cultures were incubated and prepared to result in cell suspensions containing between 10^7 and 10^8 cfu/mL. The Disinfection Efficacy test, as described above, was used, with the following modification: Since the standard Dey-Engley broth used to neutralize preservatives was not necessarily expected to neutralize the peptide, 0.1% sodium laurel sulfate (SLS) was added to the neutralization solution. Controls confirmed that this was effective in neutralizing the peptide test solution.
as §2

[4] = tested on: Serratia marcesens (ATCC 13880); settings: 1 hour exposure; for average cfu/mL: S. marcescens, peptide 100 ug/mL in water; for biocidal effect on S. marcescens (in words): 100 ug/mL in water
Description: as §1, §2

[5] = tested on: Fusarium solani (ATCC 36031); settings: 1 hour exposure; for average cfu/mL: F. solani, peptide 100 ug/mL in water; for biocidal effect on F. solani (in words): 100 ug/mL in water
Description: as §1, §2

[6] = T = 1 hr, Conc. 1 μg/mL in water
[7] = T = 1 hr, Conc. 3.33 μg/mL in water
[8] = T = 1 hr, Conc. 10 μg/mL in water
[9] = T = 1 hr, Conc. 33 μg/mL in water
[10] = T = 1 hr, Conc. 100 μg/mL in water
[11] = peptide 100 ug/mL in water, 1 hour exposure

Row | Compound | lowest concentration giving complete kill of P. aeruginosa ([1]; 1 hour exposure) | average cfu/mL [1, 6] | average cfu/mL [1, 7] | average cfu/mL [1, 8] | average cfu/mL [1, 9] | average cfu/mL [1, 10] | average cfu/mL [1, 11] | concentration giving complete kill of S. aureus ([2]; Experiment 3, 1 hour exposure) | average cfu/mL [2, 6] | average cfu/mL [2, 7] | average cfu/mL [2, 8] | average cfu/mL [2, 9] | average cfu/mL [2, 10] | average cfu/mL [2, 11] | average cfu/mL [3] | average cfu/mL [4] | average cfu/mL [5] | biocidal effect on P. aeruginosa (in words) ([1]; 1 hour exposure) | biocidal effect on S. aureus (in words) ([2]; 1 hour exposure) | biocidal effect on C. albicans (in words) [3] | other results
1 | FKLRAKIKVRLRAKIKL [D4E1] | 1 µg/mL | 1.00E+01 cfu/mL | 0.00E+00 cfu/mL | 0.00E+00 cfu/mL | 5.00E+00 cfu/mL | 0.00E+00 cfu/mL | 0.00E+00 cfu/mL | 1 µg/mL | 5.00E+00 cfu/mL | 0.00E+00 cfu/mL | 0.00E+00 cfu/mL | 0.00E+00 cfu/mL | 0.00E+00 cfu/mL | 0.00E+00 cfu/mL | 0.00E+00 cfu/mL | 0.00E+00 cfu/mL | 0.00E+00 cfu/mL |  |  |  | 
2 | AKRHHGYKRKFH-NH2 [P-113] | 3.33 µg/mL | 3.90E+02 cfu/mL | 5.00E+00 cfu/mL | 1.50E+01 cfu/mL | 0.00E+00 cfu/mL | 0.00E+00 cfu/mL | 6.00E+01 cfu/mL |  | 5.95E+04 cfu/mL | 1.44E+05 cfu/mL | 2.02E+05 cfu/mL | 3.40E+05 cfu/mL | 3.80E+05 cfu/mL | 6.10E+05 cfu/mL | 5.51E+03 cfu/mL | 4.00E+05 cfu/mL | 6.00E+03 cfu/mL | effective | no effect | effective | effectiveness against S. aureus (in words) ([2]; Experiment 3, 1 hour exposure, 100 to 1 ug/mL in water): not effective; biocidal effect on S. marcescens (in words) [4]: no effect; biocidal effect on F. solani (in words) [5]: effective
3 | FAKKFAKKFKKFAKKFAKFAFAF [D2A21] | 1 µg/mL | 0.00E+00 cfu/mL | 0.00E+00 cfu/mL | 0.00E+00 cfu/mL | 0.00E+00 cfu/mL | 0.00E+00 cfu/mL | 0.00E+00 cfu/mL | 3.33 µg/mL | 1.12E+03 cfu/mL | 0.00E+00 cfu/mL | 1.00E+01 cfu/mL | 0.00E+00 cfu/mL | 0.00E+00 cfu/mL | 0.00E+00 cfu/mL | 0.00E+00 cfu/mL | 0.00E+00 cfu/mL | 0.00E+00 cfu/mL |  |  |  | 
4 | C[C@@H](N)C(=O)N[C@H](CCCCN)C(=O)N[C@H](CCCNC(=N)N)C(=O)N[C@H](Cc1c[nH]cn1)C(=O)N[C@H](Cc1c[nH]cn1)C(=O)NCC(=O)N[C@H](Cc1ccc(O)cc1)C(=O)N[C@H](CCCCN)C(=O)N[C@H](CCCNC(=N)N)C(=O)N[C@H](CCCCN)C(=O)N[C@H](Cc1ccccc1)C(=O)N[C@H](Cc1c[nH]cn1)C(N)=O [P113D] (H-[dA][dK][dR][dH][dH]G[dY][dK][dR][dK][dF][dH]-NH2; N-terminus and C-terminus assumed) |  |  |  |  |  |  | 2.00E+01 cfu/mL |  |  |  |  |  |  | 4.70E+05 cfu/mL | 3.30E+03 cfu/mL | 2.80E+05 cfu/mL | 6.40E+03 cfu/mL | effective | no effect | effective | biocidal effect on S. marcescens (in words) [4]: no effect; biocidal effect on F. solani (in words) [5]: effective
